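1) Cells in 96-well plates. 2) Compound, 48 h, 5 concentrations. 3) Linear interpolation between surrounding doses. 4) Unreached endpoint = highest concentration. At the GI50, growth is halved. At the TGI there is no net growth.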

Some test systems named below: CAKI-1 renal; HCC-2998 colon; MDA-N; NCI-H522 lung; PC-3 prostate; SF-268 CNS; SK-OV-3 ovarian; SR leukemia; TK-10 renal; UACC-257 melanoma.
Assay in all cases: DTP human tumour cell line panel, 48 h

As for `CCOP(=O)(OCC)OC1c2[nH]cc(C(=O)OCc3ccccc3)c2-c2cc(C(=O)OC)[nH]c2C1OC` (centres undefined), the TGI with CAKI-1 renal was more than 100 µM; with HCC-2998 colon, more than 78.9 µM; in the assay with MDA-N, more than 100 µM; with NCI-H522 lung it was 29.1 µM; in the assay on PC-3 prostate, more than 100 µM; in the assay on SF-268 CNS it was more than 96 µM. The TGI in the assay with SK-OV-3 ovarian is 58 µM; in the assay on SR leukemia, more than 100 µM; with TK-10 renal, more than 39.9 µM; with UACC-257 melanoma, more than 35 µM.
Consider `N#Cc1c(O)c(/C=N/c2ncccn2)c(=O)n2c1[nH]c1ccccc12`, for which the total growth inhibition concentration (TGI) in the assay on CAKI-1 renal, in the assay on HCC-2998 colon, with MDA-N, with NCI-H522 lung, in the assay on PC-3 prostate and with SF-268 CNS was more than 100 µM in each case. Besides, the TGI in the assay with SK-OV-3 ovarian, with SR leukemia, in the assay on TK-10 renal and in the assay with UACC-257 melanoma was more than 100 µM throughout.
On to `COC(=O)CC1c2ccccc2N2C(=O)Cc3c([nH]c4ccccc34)C12` (centres undefined), for which the TGI in the assay on CAKI-1 renal, in the assay on HCC-2998 colon, in the assay on MDA-N, in the assay on NCI-H522 lung, with PC-3 prostate and with SF-268 CNS was more than 100 µM each time. The total growth inhibition concentration (TGI) in the assay on SK-OV-3 ovarian, in the assay with SR leukemia, with TK-10 renal and in the assay with UACC-257 melanoma was more than 100 µM in each case.
For the molecule `CCCCCCCCCCCCCCCCCCOCC(O)COP(=O)(O)OCC1OC(n2ccc(N)nc2=O)C(O)C1O` (centres undefined), the TGI with CAKI-1 renal is 75 µM; in the assay on HCC-2998 colon, more than 100 µM; with MDA-N, more than 100 µM; in the assay on NCI-H522 lung it was 41.8 µM; with PC-3 prostate, 20.7 µM; in the assay with SF-268 CNS, 49.8 µM. Further, the TGI with SK-OV-3 ovarian was more than 100 µM; with SR leukemia it was 40.4 µM; in the assay on TK-10 renal, 51.1 µM; with UACC-257 melanoma, more than 100 µM.
Consider `COc1ccc(-c2c(C#N)c(S)n(NS(=O)(=O)c3ccccc3)c(=O)c2C#N)cc1`, for which the concentration for total growth inhibition (TGI) in the assay with CAKI-1 renal is more than 100 µM; with HCC-2998 colon it was more than 100 µM; in the assay with MDA-N it was more than 100 µM; in the assay with NCI-H522 lung, 73 µM; in the assay on PC-3 prostate it was more than 100 µM; with SF-268 CNS, more than 100 µM. Further, the TGI in the assay with SK-OV-3 ovarian was more than 100 µM; in the assay with SR leukemia, 80.3 µM; with TK-10 renal, more than 100 µM; in the assay on UACC-257 melanoma, more than 100 µM.
As to `CCOC(=O)/C=C(/C)Nc1nc2c(c(C(=O)OC)c1C#N)CCCC2`, the concentration for total growth inhibition (TGI) with CAKI-1 renal, in the assay on HCC-2998 colon, in the assay with MDA-N, in the assay with NCI-H522 lung, in the assay with PC-3 prostate and with SF-268 CNS was more than 100 µM throughout. Further, the total growth inhibition concentration (TGI) in the assay on SK-OV-3 ovarian, in the assay on SR leukemia, with TK-10 renal and in the assay with UACC-257 melanoma was more than 100 µM in each case.
Turning to `C[C@@H]1CC[C@@]2(OC1)O[C@H]1C[C@H]3[C@@H]4CC[C@H]5C[C@@H](OC6OC(CO)C(OC7OC(CO)C(O)C(OC8OCC(O)C(O)C8O)C7OC7OC(CO)C(O)C(O)C7O)C(O)C6O)[C@H](O)C[C@]5(C)[C@H]4CC[C@]3(C)[C@H]1[C@@H]2C` (some centres undefined), the TGI was found to be 12.5 µM in the assay with CAKI-1 renal; 24.7 µM in the assay on HCC-2998 colon; 28.3 µM in the assay on MDA-N; 2.05 µM with NCI-H522 lung; 15.3 µM in the assay on PC-3 prostate; 23.7 µM in the assay with SF-268 CNS. Further, the concentration for total growth inhibition (TGI) in the assay on SK-OV-3 ovarian is 29.8 µM; in the assay with SR leukemia, more than 33.8 µM; in the assay with TK-10 renal, more than 100 µM; in the assay with UACC-257 melanoma, 39.9 µM.
`NS(=O)(=O)c1ccc(/C=C/c2ccc(O)cc2)cc1`: the GI50 was 5.59 µM with CAKI-1 renal, 13.8 µM with NCI-H522 lung, 31.5 µM in the assay on SF-268 CNS and 4.68 µM in the assay with SR leukemia. The TGI with CAKI-1 renal was 32.6 µM; in the assay with HCC-2998 colon it was 40.6 µM; in the assay with MDA-N, more than 100 µM; with NCI-H522 lung, 50.2 µM; in the assay on PC-3 prostate, 97.7 µM; in the assay with SF-268 CNS, more than 100 µM. For the same molecule, the total growth inhibition concentration (TGI) was 59.5 µM in the assay with SK-OV-3 ovarian, 55.5 µM in the assay with SR leukemia, more than 100 µM in the assay on TK-10 renal and more than 100 µM with UACC-257 melanoma.
`O=C(c1cc2c(c3ccccc13)NC1(CCCCC1)N=C2C(F)(F)F)C(F)(F)F`: the concentration for total growth inhibition (TGI) in the assay with CAKI-1 renal stood at 13.1 µM; in the assay on HCC-2998 colon, 10.4 µM; with MDA-N it was 14.2 µM; in the assay with NCI-H522 lung it was 6.95 µM; in the assay on PC-3 prostate, 12.4 µM; in the assay with SF-268 CNS, 20 µM. Further, the TGI in the assay on SK-OV-3 ovarian worked out at 18.7 µM; in the assay with SR leukemia, 13.2 µM; in the assay on TK-10 renal, 14 µM; with UACC-257 melanoma, 11.3 µM.
On to `O=C(OCCNC(=O)N1CC1)OCCNC(=O)N1CC1`, for which the TGI in the assay on CAKI-1 renal, in the assay on HCC-2998 colon, in the assay on MDA-N, in the assay with NCI-H522 lung, in the assay with PC-3 prostate and in the assay on SF-268 CNS was more than 10 µM each time. The TGI with SK-OV-3 ovarian, in the assay with SR leukemia, in the assay on TK-10 renal and in the assay on UACC-257 melanoma was more than 10 µM throughout.
Turning to `CCO/C=N/C1=C(C#N)SC2=N/C(=C\c3ccccc3)C(=O)N21`, the TGI in the assay with CAKI-1 renal, in the assay with HCC-2998 colon, with MDA-N, in the assay with NCI-H522 lung, in the assay with PC-3 prostate and in the assay on SF-268 CNS was more than 100 µM throughout. Further, the concentration for total growth inhibition (TGI) was more than 100 µM with SK-OV-3 ovarian, more than 93.8 µM with SR leukemia, more than 100 µM in the assay on TK-10 renal and more than 100 µM with UACC-257 melanoma.
Consider `Cc1ccc(Nc2nc3c(=O)n(C)c(=O)n(C)c3nc2Nc2ccc(C)cc2)cc1`, for which the TGI turned out to be 30.4 µM in the assay with CAKI-1 renal; 35.1 µM in the assay with HCC-2998 colon; 24.2 µM in the assay with MDA-N; 2.42 µM in the assay with NCI-H522 lung; 27.9 µM with PC-3 prostate; 32.2 µM in the assay on SF-268 CNS. The concentration for total growth inhibition (TGI) was more than 100 µM with SK-OV-3 ovarian, more than 100 µM in the assay on SR leukemia, 29.9 µM in the assay with TK-10 renal and 30.5 µM in the assay on UACC-257 melanoma.
With `CCOC(=O)c1c(NC(=S)Nc2ccccc2)sc2c1CCOC2`, the total growth inhibition concentration (TGI) in the assay on CAKI-1 renal, with HCC-2998 colon, in the assay on MDA-N, in the assay on NCI-H522 lung, in the assay on PC-3 prostate and in the assay with SF-268 CNS was more than 100 µM in each case. Besides, the TGI in the assay with SK-OV-3 ovarian, in the assay on SR leukemia, in the assay on TK-10 renal and in the assay on UACC-257 melanoma was more than 100 µM each time.
Regarding `c1ccc(CSC2(SCc3ccccc3)CCCCC2)cc1`, the TGI in the assay with CAKI-1 renal, with HCC-2998 colon, in the assay on MDA-N, in the assay on NCI-H522 lung, in the assay on PC-3 prostate and in the assay with SF-268 CNS was more than 10 µM throughout. In addition, the TGI in the assay with SK-OV-3 ovarian, in the assay on SR leukemia, with TK-10 renal and in the assay with UACC-257 melanoma was more than 10 µM each time.
Turning to `O=C(c1ccccc1)N1C(=S)N(c2ccccn2)C(=Nc2ccccc2)C1=Nc1ccccc1`, the TGI in the assay with CAKI-1 renal is 43.8 µM; in the assay on HCC-2998 colon, more than 100 µM; with MDA-N it was more than 50.7 µM; in the assay on NCI-H522 lung it was 5.61 µM; with PC-3 prostate it was 35.8 µM; with SF-268 CNS, more than 100 µM. Besides, the TGI in the assay on SK-OV-3 ovarian was more than 86.6 µM; with SR leukemia it was more than 63 µM; in the assay on TK-10 renal it was 88.2 µM; with UACC-257 melanoma it was more than 74.6 µM.
As to `C=C1C[C@H](O)[C@H](Br)C(C)(C)C12CCC(C)(Cl)C(Br)C2` (some centres undefined), the total growth inhibition concentration (TGI) in the assay on CAKI-1 renal is 24.5 µM; with HCC-2998 colon, 15.5 µM; in the assay with MDA-N it was 10.8 µM; in the assay with NCI-H522 lung, 15 µM; in the assay on PC-3 prostate, 1.77 µM; in the assay on SF-268 CNS, 20.8 µM. For the same molecule, the total growth inhibition concentration (TGI) amounted to 12.7 µM in the assay with SK-OV-3 ovarian, 19.7 µM in the assay with SR leukemia, 13.1 µM in the assay on TK-10 renal and 3.06 µM in the assay with UACC-257 melanoma.
Regarding `CN(C)c1ccc(C=C2C(=O)NC(=S)NC2=O)c2ccccc12`, the TGI was more than 100 µM in the assay on CAKI-1 renal; more than 100 µM in the assay on HCC-2998 colon; more than 100 µM in the assay with MDA-N; 37.5 µM with NCI-H522 lung; more than 100 µM in the assay on PC-3 prostate; 76.9 µM with SF-268 CNS. Moreover, the total growth inhibition concentration (TGI) in the assay on SK-OV-3 ovarian, in the assay on SR leukemia, in the assay on TK-10 renal and in the assay on UACC-257 melanoma was more than 100 µM each time.
Consider `c1ccc([I+]c2ccccc2)cc1`, for which the TGI with CAKI-1 renal, in the assay with HCC-2998 colon, in the assay with MDA-N, in the assay with NCI-H522 lung, in the assay with PC-3 prostate and in the assay with SF-268 CNS was more than 100 µM in each case. Further, the concentration for total growth inhibition (TGI) with SK-OV-3 ovarian, in the assay with SR leukemia, with TK-10 renal and with UACC-257 melanoma was more than 100 µM throughout.
As for `CC(=O)OC(C)(C)CCC(=O)[C@](C)(O)[C@H]1[C@H](O)C[C@@]2(C)[C@@H]3CCc4c(cc(OC5OC(CO)C(O)C(O)C5O)c(O)c4C)C3(C)C(=O)C[C@]12C` (some centres undefined), the TGI in the assay with CAKI-1 renal, in the assay on HCC-2998 colon, in the assay on MDA-N, in the assay with NCI-H522 lung, in the assay with PC-3 prostate and with SF-268 CNS was more than 100 µM in each case. The TGI with SK-OV-3 ovarian, with SR leukemia, in the assay with TK-10 renal and in the assay with UACC-257 melanoma was more than 100 µM each time.

Source of the values: PubChem BioAssay (NCI).
